Measurements published in patent publication US20220288057A1, “CONJOINT THERAPY FOR TREATING SEIZURE DISORDERS” (XENON PHARMACEUTICALS INC., priority 2021, published 2022).
Where “and” joins values, the source holds several entries; their conditions need not be identical. Equal values may be shown once. Read-outs that look alike come from different tables or passages of the source.

Assay: Terminal plasma and brain concentrations in AC-MES studies (UHPLC-MS/MS)
Format: in vivo, mouse
Conditions: for concentration at 0.5 h / Kp at 0.5 h / concentration at 30 min: CF-1, mouse, in vivo; for concentration at 30 min: 30 min pre-treatment
Description: Sample Collection and Preparation: Mice were anesthetized by isoflurane inhalation (according to SOP TECH-018) until they reached a surgical plane of anesthesia. Then a syringe (1 mL syringe with a 22 gauge needle) was inserted under the sternum into the heart (according to SOP TECH-031). Approximately 0.5 mL of blood was collected, deposited into a K2EDTA tube, and stored on ice. Animals were then euthanized by cervical dislocation. Brains were removed, placed into a pre-weighed vial, and snap frozen on dry ice. At the end of the sample collection, blood was centrifuged at 4000 rpm for 10 minutes at 4° C., and the plasma pipetted into a labeled tube. All samples were stored in a −80° C. freezer until the time of bioanalysis.
Plasma Samples: Extraction of plasma samples was carried out by protein precipitation using acetonitrile. Diluted plasma samples (50 μL) were mixed with 50 μL of internal standard (IS) solution in 1:1 acetonitrile:water (v:v) followed by addition of 200 μL of acetonitrile. Samples were vortexed for 30 seconds, centrifuged at 13,000 rpm for 20 minutes, decanted into a 96-well plate and further centrifuged at 4000 rpm for 20 minutes. The samples were analyzed by ultra-high performance liquid chromatography electrospray ionization tandem mass spectrometry (UHPLC-ESI-MS/MS) as described in the bioanalysis procedure below.
Brain Samples: Prior to extraction, pre-weighed whole brains were homogenized in 1:1 acetonitrile:water (v:v) (2 mL per mouse brain) using an IKA T18 Ultra-Turrax Homogenizer at the setting of 4 for approximately 1 minute. The homogenate was centrifuged at 13,000 rpm for 20 minutes and 50 μL of the supernatant were treated exactly as described in above for plasma samples.
Bioanalysis Procedures: All samples, including plasma and brain homogenate extracts (including calibration standards and quality control (QC) samples prepared in K2EDTA mouse plasma), were extracted by protein precipitation. To each 50 μL aliquot of sample, 50 μL of IS solution (2500 ng/mL of Lacosamide in water:acetonitrile (1:1)) and 50 μL of 6% (v:v) phosphoric acid in water were added, then 200 μL acetonitrile was added. The samples in 1.7 mL tubes were vortex-mixed then centrifuged for 20 minutes at 13,000 rpm. Fifty microliters of the supernatant was mixed with 150 μL of water:acetonitrile (1:1) in a 96 well plate, which was centrifuged post-mixing for 20 minutes at 4000 rpm. The samples were then ready for UHPLC-MS/MS analysis.
Samples were analyzed for Compound A by a research-grade UHPLC-MS/MS method using the conditions listed below.
Samples were analyzed for Lacosamide by a research-grade UHPLC-MS/MS method using the conditions listed below.
At least three QC samples, one at each concentration, had to show back-calculated values within ±20% of their nominal concentrations for the whole sample batch to be valid.
The Blinding and Randomization, Clinical Observations, AC-MES Assay, Sample Collection and Preparation, Plasma and Brain Samples Analysis, and Bioanalysis Procedures in Example 4 were identical to those used in Example 2.
Sample concentration determination and Data Processing and Analysis in Example 4 was identical to Example 2.

[1] = Study 2C, analyte Compound A, 3 mg/kg PO 0.5 h + Lacosamide 10 mg/kg PO 2 h
[2] = Study 4F, Compound A 2 mg/kg PO (0.5 h) in combination with Cenobamate 5 mg/kg PO (2 h)
[3] = Study 4G, Compound A 0.5 mg/kg PO (0.5 h) in combination with Cenobamate 5 mg/kg PO (2 h)
[4] = Study 4G, Compound A 1 mg/kg PO (0.5 h) in combination with Cenobamate 5 mg/kg PO (2 h)

Cc1cc(N2CCc3cc(F)ccc3C2)cc(C)c1NC(=O)CC(C)(C)C [Compound A, N-[4-(6-fluoro-3,4-dihydro-1H-isoquinolin-2-yl)-2,6-dimethylphenyl]-3,3-dimethylbutanamide]
concentration at 0.5 h (2 mg/kg, Study 4F, Compound A 2 mg/kg PO alone, 0.5 h pre-treatment, CF-1 mice, read-out: Mean Brain): 250 nM | concentration at 0.5 h (2 mg/kg, Study 4F, Compound A 2 mg/kg PO alone, 0.5 h pre-treatment, CF-1 mice, read-out: Mean Plasma): 110 nM | concentration at 0.5 h (Study 2C, analyte Compound A, 3 mg/kg PO 0.5 h + Lacosamide 10 mg/kg PO 2 h, read-out: Mean Plasma): 279 nM | concentration at 0.5 h (Study 4F, analyte Compound A, 2 mg/kg in combination with Cenobamate 5 mg/kg, read-out: mean plasma concentration): 290 nM | concentration at 0.5 h (Study 4G, analyte Compound A, 0.5 mg/kg in combination with Cenobamate 5 mg/kg, read-out: mean total plasma concentration): 30 nM | concentration at 0.5 h (Study 4G, analyte Compound A, 1 mg/kg in combination with Cenobamate 5 mg/kg, read-out: mean total plasma concentration): 110 nM | concentration at 0.5 h (po, 2 mg/kg, Study 4F, Compound A 2 mg/kg PO, 0.5 h, alone, read-out: mean plasma concentration): 110 nM | Kp at 0.5 h (po, 2 mg/kg, Study 4F, Compound A 2 mg/kg PO alone, read-out: B/P Ratio (brain to plasma ratio)): 2.32 | concentration at 2 h (Study 2A, Compound A 1 mg/kg PO, 0.5 h, 1 mg/kg, read-out: Mean Plasma): 80 nM | concentration at 2 h (Study 2A, Compound A 5 mg/kg PO, 0.5 h, 5 mg/kg, read-out: Mean Plasma): 280 nM | concentration at 2 h (Study 2A, Compound A 10 mg/kg PO, 0.5 h, 10 mg/kg, read-out: Mean Plasma): 370 nM | concentration at 2 h (Study 2B, Compound A 10 mg/kg PO, 0.5 h, 10 mg/kg, read-out: Mean Plasma): 550 nM | concentration at 2 h (Study 2C, Compound A 3 mg/kg PO, 0.5 h, alone, 3 mg/kg, read-out: Mean Plasma): 280 nM and 283 nM | B/P Ratio [1]: 1.95 + | Mean Brain [1]: 0.54 + μM | Mean Plasma [1]: 0.28 + μM | concentration at 2 h (Study 4B, Compound A 5 mg/kg PO, 0.5 h, 5 mg/kg, read-out: mean plasma concentration): 470 nM | Mean Brain, Compound A [2]: 0.67 µM | Mean Plasma, Compound A [2]: 0.29 µM | B/P Ratio, Compound A (Study 4F, Compound A 2 mg/kg PO in combination with Cenobamate 5 mg/kg PO): 2.34 | Mean Brain, Compound A [3]: 0.09 µM | Mean Plasma, Compound A [3]: 0.03 µM | B/P Ratio, Compound A (Study 4G, Compound A 0.5 mg/kg PO in combination with Cenobamate 5 mg/kg PO): 3.22 | Mean Brain, Compound A [4]: 0.30 µM | Mean Plasma, Compound A [4]: 0.11 µM | B/P Ratio, Compound A (Study 4G, Compound A 1 mg/kg PO in combination with Cenobamate 5 mg/kg PO): 2.76 | concentration at 30 min (male, 1 mg/kg, Study 4A, Compound A 1 mg/kg single oral dose, CF-1 mice, read-out: Brain): 150 nM | concentration at 30 min (male, 1 mg/kg, Study 4A, Compound A 1 mg/kg single oral dose, CF-1 mice, read-out: Plasma): 80 nM | concentration at 30 min (male, 5 mg/kg, Study 4A, Compound A 5 mg/kg single oral dose, CF-1 mice, read-out: Brain): 400 nM | concentration at 30 min (male, 5 mg/kg, Study 4A, Compound A 5 mg/kg single oral dose, CF-1 mice, read-out: Plasma): 280 nM | concentration at 30 min (male, 10 mg/kg, Study 4A, Compound A 10 mg/kg single oral dose, CF-1 mice, read-out: Brain): 500 nM | concentration at 30 min (male, 10 mg/kg, Study 4A, Compound A 10 mg/kg single oral dose, CF-1 mice, read-out: Plasma): 370 nM | Kp at 0.5 h (male, po, 1 mg/kg, Study 2A, Compound A 1 mg/kg PO, 0.5 h, read-out: B/P Ratio): 1.85 | concentration at 0.5 h (male, po, 1 mg/kg, Study 2A, Compound A 1 mg/kg PO, 0.5 h, read-out: Mean Brain): 150 nM | concentration at 0.5 h (male, po, 1 mg/kg, Study 2A, Compound A 1 mg/kg PO, 0.5 h, read-out: Mean Plasma): 81.5 nM | concentration at 0.5 h (male, po, 1 mg/kg, Study 4A, Compound A 1 mg/kg PO, 0.5 h, read-out: mean plasma concentration): 80 nM
